The target of one data set is T1, human NMB receptor (BB1) (Homo sapiens, UniProt P28336).
T1 construct: expressed in transfected cells; membranes prepared from the cells
Description: BB1 binding assay ([125I][Tyr4]bombesin displacement, CHO-K1 membranes). To be noted: for Ki: Table 1, human NMB receptor binding affinity, Ki from IC50 by Cheng-Prusoff, read-out: NMB Ki. In outline:
(§1)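 Membranes from CHO-K1 cells stably expressing human NMB (BB1) or GRP (BB2) receptors, in 50 mM Tris-HCl pH 7.4 with BSA and protease inhibitors, incubated with [125I][Tyr4]bombesin (<0.1 nM) for 60 min (BB1) or 90 min (BB2). Nonspecific binding defined with 1 μM bombesin; filtration and gamma counting; IC50 converted to Ki by Cheng-Prusoff.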

A further data set concerns the target T2, human GRP receptor (BB2) (Homo sapiens, UniProt P30550).
T2 construct: expressed in transfected cells; membranes prepared from the cells
The data set is described as follows: BB2 binding assay ([125I][Tyr4]bombesin displacement, CHO-K1 membranes). In a few lines:
as §1

Where [1] appears, read: Table 3, N-acyl derivatives of Intermediate III-7.
[2] abbreviates: second 'TABLE 4', N-terminal urethane derivatives of Intermediate III-7.

Read-outs that look alike come from different tables or passages of the source.

T1 sequence (P28336 whole entry): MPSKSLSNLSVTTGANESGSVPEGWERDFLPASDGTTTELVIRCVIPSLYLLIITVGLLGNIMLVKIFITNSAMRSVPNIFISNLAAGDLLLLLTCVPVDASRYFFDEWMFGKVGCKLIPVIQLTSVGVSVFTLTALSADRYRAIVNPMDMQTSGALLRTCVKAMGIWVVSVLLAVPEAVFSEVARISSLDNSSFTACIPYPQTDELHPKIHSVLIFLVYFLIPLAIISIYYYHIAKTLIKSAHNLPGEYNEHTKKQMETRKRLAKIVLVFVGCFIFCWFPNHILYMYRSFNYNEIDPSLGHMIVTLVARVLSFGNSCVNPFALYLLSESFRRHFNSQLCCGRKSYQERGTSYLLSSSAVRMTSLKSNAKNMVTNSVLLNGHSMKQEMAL
T2 sequence (P30550 whole entry): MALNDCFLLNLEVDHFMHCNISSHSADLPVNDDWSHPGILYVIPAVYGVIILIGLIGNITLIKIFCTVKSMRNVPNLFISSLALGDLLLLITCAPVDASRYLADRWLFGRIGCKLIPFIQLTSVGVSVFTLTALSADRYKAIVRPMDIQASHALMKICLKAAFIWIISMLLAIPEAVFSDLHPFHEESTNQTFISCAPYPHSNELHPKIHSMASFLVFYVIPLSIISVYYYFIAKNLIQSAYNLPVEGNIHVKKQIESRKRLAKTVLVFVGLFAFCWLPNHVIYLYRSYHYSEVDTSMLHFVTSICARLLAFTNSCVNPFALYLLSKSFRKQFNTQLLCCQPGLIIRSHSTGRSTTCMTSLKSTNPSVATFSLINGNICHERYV

As usually defined, the Ki is a dissociation constant, usually derived from enzyme kinetics or from competition with a known ligand. The melting point is the temperature, or range, at which the solid turns liquid. Take `C[C@@](Cc1c[nH]c2ccccc12)(Nc1cncnc1)C(=O)NCC1(c2ccccn2)CCCCC1` [Example 20, (S)-3-(1H-Indol-3-yl)-2-methyl-N-(1-pyridin-2-yl-cyclohexylmethyl)-2-(pyrimidin-5-ylamino)-propionamide]: the melting point was 95 to 98 °C. The inhibition constant Ki at human NMB receptor (BB1) was 3160 nM.
With `C[C@@](Cc1c[nH]c2ccccc12)(Nc1ccncc1)C(=O)NCC1(c2ccccn2)CCCCC1` [Example 18, (S)-3-(1H-Indol-3-yl)-2-methyl-2-(pyridin-4-ylamino)-N-(1-pyridin-2-yl-cyclohexylmethyl)-propionamide], the melting point lay within 180 to 195 °C. Besides, the Ki at human NMB receptor (BB1) was 303 nM.
Take `COc1ccc(C2(CNC(=O)[C@](C)(Cc3c[nH]c4ccccc34)Nc3nc(-c4ccc([N+](=O)[O-])cc4)cs3)CCCCC2)nc1` [Example 16]: the melting point fell in the range of 110 to 114 °C. The inhibitory constant (Ki) at human NMB receptor (BB1) came out at 15 nM.
The IC50 is the concentration needed to halve the response being measured. Read a low IC50 as higher potency. For the compound `C[C@@](Cc1c[nH]c2ccccc12)(NS(=O)(=O)c1ccc(F)cc1)C(=O)NCC1(c2ccccn2)CCCCC1` [Example 122], the figures for the IC50 on human NMB receptor (BB1) and at human GRP receptor (BB2) were 560 nM and 4160 nM, respectively.
Consider `Cc1ccccc1C(=O)N[C@@](C)(Cc1c[nH]c2ccccc12)C(=O)NCC1(c2ccccn2)CCCCC1` [Example 47, N—{(S)-2-(1H-Indol-3-yl)-1-methyl-1-[(1-pyridin-2-yl-cyclohexylmethyl)-carbamoyl]-ethyl}-2-methyl-benzamide], for which the IC50 on human NMB receptor (BB1) (setting [1]) was 3280 nM; at human GRP receptor (BB2) (setting [1]), above 10000 nM.
Consider `C[C@@](Cc1c[nH]c2ccccc12)(NC(=O)Cc1ccccc1[N+](=O)[O-])C(=O)NCC1(c2ccccn2)CCCCC1` [Example 84, (S)-3-(1H-Indol-3-yl)-2-methyl-2-[2-(2-nitro-phenyl)-ethanoylamino]-N-(1-pyridin-2-yl-cyclohexylmethyl)-propionamide], for which the results for the IC50 at human NMB receptor (BB1) (setting [1]) and at human GRP receptor (BB2) (setting [1]) were 1980 nM and above 10000 nM, respectively.
Take `Cc1ccc(CC(=O)N[C@@](C)(Cc2c[nH]c3ccccc23)C(=O)NCC2(c3ccccn3)CCCCC2)cc1` [Example 50, (S)-3-(1H-Indol-3-yl)-2-methyl-N-(1-pyridin-2-yl-cyclohexylmethyl)-2-(2-p-tolyl-ethanoylamino)-propionamide]: the results for the IC50 on human NMB receptor (BB1) (setting [1]) and on human GRP receptor (BB2) (setting [1]) were 944 nM and above 10000 nM, respectively.
In the case of `C[C@@](Cc1c[nH]c2ccccc12)(NC(=O)c1cccc2[nH]ccc12)C(=O)NCC1(c2ccccn2)CCCCC1` [Example 68, 1H-Indole-4-carboxylic acid {(S)-2-(1H-indol-3-yl)-1-methyl-1-[(1-pyridin-2-yl-cyclohexylmethyl)-carbamoyl]-ethyl}-amide], the IC50 at human NMB receptor (BB1) (setting [1]) is 4500 nM; on human GRP receptor (BB2) (setting [1]) it was above 10000 nM.
For `C[C@@](Cc1c[nH]c2ccccc12)(NC(=O)OCc1ccc(C(F)(F)F)cc1)C(=O)NCC1(c2ccccn2)CCCCC1` [Example 101, {(S)-2-(1H-Indol-3-yl)-1-methyl-1-[(1-pyridin-2-yl-cyclohexylmethyl)-carbamoyl]-ethyl}-carbamic acid 4-trifluoromethyl-benzyl ester], the results for the IC50 at human NMB receptor (BB1) (setting [2]) and at human GRP receptor (BB2) (setting [2]) were 1100 nM and above 10000 nM, respectively.
Turning to `C[C@@](Cc1c[nH]c2ccccc12)(NC(=O)OCc1ccccc1Cl)C(=O)NCC1(c2ccccn2)CCCCC1` [Example 95, {(S)-2-(1H-Indol-3-yl)-1-methyl-1-[(1-pyridin-2-yl-cyclohexylmethyl)-carbamoyl]-ethyl}-carbamic acid 2-chloro-benzyl ester], the concentration for half-maximal inhibition (IC50) at human NMB receptor (BB1) (setting [2]) was 624 nM; on human GRP receptor (BB2) (setting [2]) it was above 10000 nM.
In the case of `C[C@@](Cc1c[nH]c2ccccc12)(NC(=O)c1ccsc1)C(=O)NCC1(c2ccccn2)CCCCC1` [Example 65, Thiophene-3-carboxylic acid {(S)-2-(1H-indol-3-yl)-1-methyl-1-[(1-pyridin-2-yl-cyclohexylmethyl)-carbamoyl]-ethyl}-amide], the IC50 at human NMB receptor (BB1) (setting [1]) was 2200 nM; on human GRP receptor (BB2) (setting [1]) it was above 10000 nM.
In the case of `Cc1ccc(Oc2ccccc2)c(S(=O)(=O)N[C@@](C)(Cc2c[nH]c3ccccc23)C(=O)NCC2(c3ccccn3)CCCCC2)c1` [Example 152, (S)-3-(1H-indol-3-yl)-2-methyl-2-(5-methyl-2-phenoxy-benzenesulfonylamino)-N-(1-pyridin-2-yl-cyclohexylmethyl)-propionamide], the values for the IC50 at human NMB receptor (BB1) and on human GRP receptor (BB2) were 76 nM and above 10000 nM, respectively.
Take `COc1cccc(C(=O)N[C@@](C)(Cc2c[nH]c3ccccc23)C(=O)NCC2(c3ccccn3)CCCCC2)c1` [Example 40, N—{(S)-2-(1H-Indol-3-yl)-1-methyl-1-[(1-pyridin-2-yl-cyclohexylmethyl)-carbamoyl]-ethyl}-3-methoxy-benzamide]: the results for the IC50 on human NMB receptor (BB1) (setting [1]) and at human GRP receptor (BB2) (setting [1]) were 2860 nM and above 10000 nM, respectively.
For `C[C@@](Cc1c[nH]c2ccccc12)(NC(=O)OC1Cc2ccccc2C1)C(=O)NCC1(c2ccccn2)CCCCC1` [Example 90, {(S)-2-(1H-Indol-3-yl)-1-methyl-1-[(1-pyridin-2-yl-cyclohexylmethyl)-carbamoyl]-ethyl}-carbamic acid indan-2-yl ester], the half-inhibitory concentration (IC50) on human NMB receptor (BB1) (setting [2]) was 955 nM; at human GRP receptor (BB2) (setting [2]) it was above 10000 nM.
Take `C[C@@](Cc1c[nH]c2ccccc12)(NC(=O)OCc1ccc(Cl)cc1)C(=O)NCC1(c2ccccn2)CCCCC1` [Example 93, {(S)-2-(1H-Indol-3-yl)-1-methyl-1-[(1-pyridin-2-yl-cyclohexylmethyl)-carbamoyl]-ethyl}-carbamic acid 4-chloro-benzyl ester]: the results for the 50% inhibitory concentration (IC50) at human NMB receptor (BB1) (setting [2]) and on human GRP receptor (BB2) (setting [2]) were 681 nM and above 10000 nM, respectively.
Turning to `C[C@@](Cc1c[nH]c2ccccc12)(NS(=O)(=O)c1cccc(Cl)c1)C(=O)NCC1(c2ccccn2)CCCCC1` [Example 130], the IC50 on human NMB receptor (BB1) is 331 nM; on human GRP receptor (BB2), 2690 nM.
For `COc1cccc(S(=O)(=O)N[C@@](C)(Cc2c[nH]c3ccccc23)C(=O)NCC2(c3ccccn3)CCCCC2)c1` [Example 145], the IC50 amounted to 295 nM at human NMB receptor (BB1) and 3690 nM at human GRP receptor (BB2).
As for `Cc1cccc(C(=O)N[C@@](C)(Cc2c[nH]c3ccccc23)C(=O)NCC2(c3ccccn3)CCCCC2)n1` [Example 76, 6-Methyl-pyridine-2-carboxylic acid {(S)-2-(1H-indol-3-yl)-1-methyl-1-[(1-pyridin-2-yl-cyclohexylmethyl)-carbamoyl]-ethyl}-amide], the IC50 on human NMB receptor (BB1) (setting [1]) is 2820 nM; at human GRP receptor (BB2) (setting [1]), above 10000 nM.
`COc1ccc(C(=O)N[C@@](C)(Cc2c[nH]c3ccccc23)C(=O)NCC2(c3ccccn3)CCCCC2)cc1` [Example 35, N—{(S)-2-(1H-Indol-3-yl)-1-methyl-1-[(1-pyridin-2-yl-cyclohexylmethyl)-carbamoyl]-ethyl}-4-methoxy-benzamide]: the IC50 at human NMB receptor (BB1) (setting [1]) is 2880 nM; on human GRP receptor (BB2) (setting [1]) it was above 10000 nM.
For `C[C@@](Cc1c[nH]c2ccccc12)(NC(=O)c1ccc([N+](=O)[O-])cc1)C(=O)NCC1(c2ccccn2)CCCCC1` [Example 36, N—{(S)-2-(1H-Indol-3-yl)-1-methyl-1-[(1-pyridin-2-yl-cyclohexylmethyl)-carbamoyl]-ethyl}-4-nitro-benzamide], the values for the IC50 on human NMB receptor (BB1) (setting [1]) and on human GRP receptor (BB2) (setting [1]) were 343 nM and above 10000 nM, respectively.
Regarding `C[C@@](Cc1c[nH]c2ccccc12)(NC(=O)OCc1cccc(C#N)c1)C(=O)NCC1(c2ccccn2)CCCCC1` [Example 103, {(S)-2-(1H-Indol-3-yl)-1-methyl-1-[(1-pyridin-2-yl-cyclohexylmethyl)-carbamoyl]-ethyl}-carbamic acid 3-cyano-benzyl ester], the IC50 on human NMB receptor (BB1) (setting [2]) is 85 nM; at human GRP receptor (BB2) (setting [2]), above 10000 nM.
The matching figures for `C[C@@](Cc1c[nH]c2ccccc12)(NC(=O)OCc1ccccc1F)C(=O)NCC1(c2ccccn2)CCCCC1` [Example 94, {(S)-2-(1H-Indol-3-yl)-1-methyl-1-[(1-pyridin-2-yl-cyclohexylmethyl)-carbamoyl]-ethyl}-carbamic acid 2-fluoro-benzyl ester]: 923 nM and above 10000 nM.
On to `C[C@@](Cc1c[nH]c2ccccc12)(NC(=O)c1ncoc1-c1ccccc1)C(=O)NCC1(c2ccccn2)CCCCC1` [Example 80, 5-Phenyl-oxazole-4-carboxylic acid {(S)-2-(1H-indol-3-yl)-1-methyl-1-[(1-pyridin-2-yl-cyclohexylmethyl)-carbamoyl]-ethyl}-amide], for which the half-inhibitory concentration (IC50) at human NMB receptor (BB1) (setting [1]) was 2660 nM; on human GRP receptor (BB2) (setting [1]), above 10000 nM.
`C[C@@](Cc1c[nH]c2ccccc12)(NC(=O)Cc1ccsc1)C(=O)NCC1(c2ccccn2)CCCCC1` [Example 56, (S)-3-(1H-Indol-3-yl)-2-methyl-N-(1-pyridin-2-yl-cyclohexylmethyl)-2-(2-thiophen-3-yl-ethanoylamino)-propionamide]: the concentration for half-maximal inhibition (IC50) at human NMB receptor (BB1) (setting [1]) was 1440 nM; at human GRP receptor (BB2) (setting [1]) it was above 10000 nM.
In the case of `C[C@@](Cc1c[nH]c2ccccc12)(NS(=O)(=O)c1cccc2cccnc12)C(=O)NCC1(c2ccccn2)CCCCC1` [Example 120, (S)-3-(1H-indol-3-yl)-2-methyl-N-(1-pyridin-2-yl-cyclohexylmethyl)-2-(quinoline-8-sulfonylamino)-propionamide], the concentration for half-maximal inhibition (IC50) on human NMB receptor (BB1) is 108 nM; at human GRP receptor (BB2) it was above 10000 nM.
On to `Cc1ccsc1C(=O)N[C@@](C)(Cc1c[nH]c2ccccc12)C(=O)NCC1(c2ccccn2)CCCCC1` [Example 74, 3-Methyl-thiophene-2-carboxylic acid {(S)-2-(1H-indol-3-yl)-1-methyl-1-[(1-pyridin-2-yl-cyclohexylmethyl)-carbamoyl]-ethyl}-amide], for which the half-inhibitory concentration (IC50) was 744 nM at human NMB receptor (BB1) (setting [1]) and above 10000 nM on human GRP receptor (BB2) (setting [1]).
On to `C[C@@](Cc1c[nH]c2ccccc12)(NC(=O)c1ccccc1[N+](=O)[O-])C(=O)NCC1(c2ccccn2)CCCCC1` [Example 45, N—{(S)-2-(1H-Indol-3-yl)-1-methyl-1-[(1-pyridin-2-yl-cyclohexylmethyl)-carbamoyl]-ethyl}-2-nitro-benzamide], for which the 50% inhibitory concentration (IC50) at human NMB receptor (BB1) (setting [1]) is 4580 nM; on human GRP receptor (BB2) (setting [1]), above 10000 nM.

(Values after patent US20020169101A1, “Treatment of sexual dysfunction” (priority 1999, published 2002).)
